Measurements from patent US20180110747A1, “USE OF THIA OXO COMPOUNDS FOR LOWERING APO C3” (Pronova Biopharma Norge AS, priority 2015, published 2018).
Each block holds one molecule with its values, some of them ahead of it.

How the values were obtained:
[1] = In-vitro digestion studies in a bio relevant media; type: in vitro ADME
Source text: Examples 1-23 are exemplary and one skilled in the art would understand how to apply these general methods to arrive at other compounds within the scope of Formula (I). Compounds of the present disclosure may be in the form of a pharmaceutically acceptable salt or ester. For example, the compounds of Formula (I) may be in the form of esters, such as a phospholipid, a glyceride or a C1-C6-alkyl ester. In at least one embodiment, the ester is chosen from a glyceride or a C1-C6-alkyl ester. In at least one embodiment, the ester is chosen from a triglyceride, a 1,2 diglyceride, a 1,3-diglyceride, a 1-monoglyceride, a 2-monoglyceride, a methyl ester, an ethyl ester, a propyl ester, a isopropyl ester, a n-butyl ester and a tert-butyl ester. In at least one embodiment, the compound of Formula (I) is present as a methyl ester, an ethyl ester, an isopropyl ester, a n-butyl ester or a tert-butyl ester, for example as a methyl ester or an ethyl ester.

[2] = system: Apo C-III; experiment: Example 25C Phase Ib clinical study, hypercholesterolemia, 4 weeks; type: in vivo, human; settings: 600 mg QD, male hypercholesterolemic subjects withdrawn from statin, statistically significant
Experimental: This study investigated subjects with fasting LDL-C of at least […] (˜97 mg/dl). The objective of the study was to determine the pharmacodynamics and lipid lowering effects of Compound A (Example 2) following 4 weeks of treatment in male, hypercholesterolemic subjects withdrawn from stable statin therapy.
The population for this study consisted of men between 18 and 65 years of any ethnic origin and with a BMI between 18.0 and 35.0 kg/m^2.
This Phase Ib study consisted of a 4-5 week screening period, and a 4 week double-blind, randomized, placebo-controlled treatment period.
All subjects had to be on lipid-lowering statin therapy for at least 3 months prior to the first screening visit, and at stable statin dose for at least 4 weeks prior to the first screening vist.
Statin treatment was withdrawn at the first screening visit, and remained withdrawn for the entire screening period. […]
Blood lipids were measured at the end of the screening period and after 4 weeks of treatment, Exploratory pharmacodynamic measurements included LDL-C, VLDL-C, TC, TO, HDL-C, Non-HDL-C, and Apo B. The impact of Compound A on Apo C-III was also measured.
Summary statistics for baseline is given as mean with coefficient of variance. The mean changes from baseline with 95% confidence intervals were presented by treatment group for efficacy variables analyzed. […]

[3] = system: plasma apoC-III and other lipid parameters; experiment: Example 25B Phase II clinical study, mixed dyslipidemia (TG 200-499 mg/dL) on statins, 12 weeks; type: in vivo, human; settings: 600 mg QD
Experimental: This study investigated patients with fasting plasma TG levels between 200 and 499 mg/dL and non-high density lipoprotein cholesterol (non-HDL-C) above 130 mg/dL already receiving treatment with statins. The primary objective of this study was to evaluate the efficacy of Compound A (Example 2) 600 mg QD orally by assessment of the percentage change in triglycerides non-HDL-C from baseline after 12. weeks of treatment. One of the secondary objectives was to evaluate the impact of Compound A on plasma levels of apoC-III.
(§1) This Phase II, multicenter, proof of concept study consisted of a 6- to 8-week screening period (which included a 4- or 6-week diet and lifestyle stabilization/washout period and a 2-week TG and non-HDL-C qualifying period), and a 12-week, double-blind, randomized, parallel group, placebo-controlled treatment period.
After confirmation of qualifying fasting TG and non-HDL-C values, eligible subjects entered the 12-week, randomized, double-blind treatment period. At Visit 4 (Week 0), subjects were randomly assigned in a 1:1 ratio to 1 of the following treatment groups: Compound A 600 mg QD or placebo QD.
(§2) The population for this study was men and women (women of childbearing potential were required to use adequate methods to avoid pregnancy) between the ages of 18 to 79 years of age, inclusive. Subjects on stable lipid-lowering statin therapy and subjects not on non-statin lipid-lowering therapy were eligible to enroll in the study. Subjects were required to have an average fasting TG level between 200 and 499 mg/L and non-HDL-C values above 130 mg/dL from Visit 2 and Visit 3 values or Visit 3 and Visit 3.1 values prior to randomization.
The ITT Population was the primary analysis population. All efficacy analyses were performed on the ITT Population.
(§3) Summary statistics (n, mean, standard deviation [SD], median, minimum, and maximum) for the baseline and post-baseline measurements, the percent changes, or changes from baseline were presented by treatment group and by visit for all efficacy variables analyzed.
(§4) The primary efficacy analysis was performed using an ANCOVA model with randomization as factor and baseline non-HDL-C value as a covariate. The least-squares means, standard errors, and 2-tailed 95% CIs for each treatment group and for the comparison between Compound A and placebo were provided.
The primary efficacy analysis was based on the […].
The population recruited for the current study included men (58.4%) and women ([…]) with a mean age of 58.3 years. All subjects were required to be on statin therapy (with or without ezetimibe) during the study. All other non-statin lipid-altering medications were discontinued at screening. Mean compliance to study medication during the study was 97.2% for the placebo group and 95.3% for the Compound A group.
The baseline mean non-HDL-C level for the study population was 165.9 mg/dL; the baseline median TG level was 262.0 mg/dL.

[4] = system: apoC-III; experiment: Hepatic apoC-III gene expression in APOE*3Leiden transgenic mice on Western-type diet; type: in vivo, mouse; settings: 0.3 mmol/kg bw/day orally as admix to WTD, 4 weeks
Source text: The APOE*3Leiden transgenic mouse is expressing a variant of the human apolipoprotein E3 (APOE3), the APOE*3Leiden, in addition to the human apolipoprotein C1 (APOC1). […] In contrast to normal wild-type mice, the APOE*3Leiden transgenic mice are highly responsive to diet and hypolipidemic drugs affecting plasma VLDL and chylomicron levels (Van Vlijmen B et al, Diet-induced hyperlipoproteinemia and atherosclerosis in apolipoprotein E3-Leiden transgenic mice, J Clin Invest 1994; 93: 1403-1410; Groot PHE, et al. Quantitative assessment of aortic atherosclerosis in apoE3Leiden transgenic mice and its relationship to serum cholesterol exposure, Arterioscler Thromb Vase Biol 1996; 16: 926-933). Consequently, this model is appropriate to evaluate effects of lipid lowering drugs.
In this study, female APOE*3Leiden transgenic mice were put on a semi-synthetic Western-type diet (WTD; 15% cocoa butter, 40% sucrose and 0.25% cholesterol; all w/w). […]
Liver tissues were stored in RNA later (Qiagen) at −80° C. […] Each sample was measured in 3 parallels, and the results are presented as the mean value relative to control (WTD without addition), The fold change in gene expression was calculated by the ΔΔCt method, using Rplp0 as housekeeping gene and the mean of the control samples as calibrator.

[5] = system: plasma apoC-III and other lipid parameters; experiment: Example 25A Phase II clinical study, severe hypertriglyceridemia (TG above 500 mg/dL), 12 weeks; type: in vivo, human; settings: 600 mg QD
Experimental: This study investigated patients with fasting plasma triglyceride levels above 500 mg/dL The primary objective of this study was to evaluate the efficacy of Compound A (Example 2) 600 mg once daily (QD) orally by assessment of the percentage change in triglycerides (TG) from baseline after 12 weeks of treatment. One of the secondary objectives was to evaluate the impact of Compound A on plasma levels of apoC-III.
as §1, with “TG” for “TG and non-HDL-C”
After confirmation of qualifying fasting TG values, eligible subjects entered the 12-week, randomized, double-blind treatment period. At Visit 4 (Week 0), subjects were randomly assigned in a 1:1 ratio to 1 of the following treatment groups: Compound A 600 mg QD or placebo QD.
Approximately 43 subjects per treatment group (approximately 86 subjects total) were to be randomized in this study. Stratification was by baseline TG level (≤700 mg/dL or >700 mg/dL), statin use at randomization, and gender.
as §2, with “non-statin” for “non-statin lipid-lowering”, “≥500 mg/dL,” for “between 200”, “≤1500” for “499 mg/L and non-HDL-C values above 130”
The ITT Population was the primary analysis population, All efficacy analyses were performed on the ITT Population.
as §3
as §4, with “analysis of covariance (ANCOVA)” for “ANCOVA”, “with treatment, gender, and the use of statin therapy at” for “with”, “factors” for “factor”, “TG” for “non-HDL-C”, “confidence intervals (CIs)” for “CIs”
An ANCOVA model was used for the analysis of secondary efficacy variables with treatment, gender, and the use of statin therapy at randomization as factors and the baseline value of the respective efficacy variable as a covariate.
The population recruited for the current study included men (69.0%) and women (31.0%) with a mean age of 52.5 years. approximately 21% of subjects in both treatment groups received statin therapy through the study. All other non-statin lipid-altering medications were discontinued at screening. Mean compliance to study medication during the study was 96.5% for the placebo group and 99.9% for the Compound A 600 mg group.

[6] = mixed dyslipidemia, TG = 200-499 mg/dl, on statin, 12 weeks
[7] = subjects with TG >500 mg/dl, 12 weeks

- hydrolysis in the gastrointestinal tract, from in-vitro digestion [1]: rapidly hydrolyzed
SMILES: CC/C=C\C/C=C\C/C=C\C/C=C\C/C=C\CCCCOC(CC)C(=O)OCC (centres unmarked) [Example 12, ethyl 2-((5Z,8Z,11Z,14Z,17Z)-icosa-5,8,11,14,17-pentaen-1-yloxy)butanoate]

- hydrolysis in the gastrointestinal tract, from in-vitro digestion [1]: rapidly hydrolyzed
SMILES: CC/C=C\C/C=C\C/C=C\C/C=C\C/C=C\CCCCOC(CC)C(=O)OCCCC (centres unmarked) [Example 15, butyl 2-(((5Z,8Z,11Z,14Z,17Z)-icosa-5,8,11,14,17-pentaen-1-yl)oxy)butanoate]

SMILES: CC/C=C\C/C=C\C/C=C\C/C=C\C/C=C\CCCCOC(CC)C(=O)O (centres unmarked) [Compound A, 2-((5Z,8Z,11Z,14Z,17Z)-icosa-5,8,11,14,17-pentaen-1-yloxy)butanoic acid]
- mean percent change in Apo C-III vs baseline [2]: −42%
- LS mean percent change in ApoC-III vs placebo ([3]; 12-week completer population, 95% CI (−28.8, −12.7)): −20.8%
- LS mean percent change in apoC-III vs baseline ([3]; 12-week completer population, 95% CI (−38.4, −26.6)): −32.5%
- Apo B, median % change from baseline [3, 6]: −6%
- ApoC-III, median % change from baseline [3, 6]: −35%
- LDL-C, median % change from baseline [3, 6]: 0%
- Non-HDL-C, median % change from baseline [3, 6]: −10%
- TG, median % change from baseline [3, 6]: −43%
- VLDL-C, median % change from baseline [3, 6]: −39%
- median reduction in apoC-III ([3]; mixed dyslipidemic patient population): 35%
- effect on hepatic apoC-III expression compared with reference Compound 12 [4]: more potent
- hepatic apoC-III expression versus mice fed a standard WTD (FIG. 1) ([4]; P<0.05, Student T-test): significantly lower
- LS mean percent change in apoC-III versus placebo ([5]; 12 weeks, ITT Population, 95% CI (−46.5, −22.8)): −34.7%
- LS mean percent change in apoC-III vs baseline ([5]; 12 weeks, ITT Population, 95% CI (−47.5, −28.5)): −38.0%
- median reduction in apoC-III ([5]; severe HTG patient population): 41%
- ApoC-III, median % change from baseline [5, 7]: −41%
- HDL-C, median % change from baseline [5, 7]: 24%
- LDL-C, median % change from baseline [5, 7]: 43%
- Non-HDL-C, median % change from baseline [5, 7]: −8%
- TG, median % change from baseline [5, 7]: −51%
- VLDL-C, median % change from baseline [5, 7]: −51%
